Results on two compounds are retold here after paper PMC11351458, “Bioaffinity Ultrafiltration Combined with HPLC-ESI-qTOF-MS/MS for Screening Potential Bioactive Components from the Stems of Dendrobium fimbriatum and In Silico Analysis” (Antioxidants, 2024).

Read-outs that look alike come from different tables or passages of the source. Marks after values point to notes of the source that are not given here.

Assay [1] addresses T1, acetylcholinesterase (AChE) (Electrophorus electricus, UniProt O42275).
T1 construct: purchased Sigma-Aldrich (St. Louis, MO, USA)
In words: biochemical. The method, then:
The acetylcholinesterase inhibitory assay was carried out applying a method described in reference. Briefly, 0.1 M sodium phosphate buffer (pH 8.0, 140 μL), DTNB (10 μL), sample (20 μL), and AChE solution (15 μL) were added to a 96-well microplate and incubated at room temperature for 10 min. Finally, the absorbance was detected with a spectrophotometer at 405 nm.
The acetylcholinesterase inhibitory effect was counted as follows (Asample and Acontrol represent the absorbance of the tested sample and control, respectively):Acetylcholinesterase inhibitory activity (%) = (Acontrol − Asample)/Acontrol × 100%

For the next assay, the target named is α-glucosidase. In words: α-Glucosidase inhibitory activity assay. In kind it is biochemical. The following applies: isolated compounds. The method, then: To test the anti-α-glucosidase effect of each solvent extract and each component, a previously described method was used. […] The α-glucosidase solution was diluted to 1 U/mL with 0.1 M sodium phosphate buffer (pH 6.8). Various concentrations of extract or compound (100 µL) and α-glucosidase solution (20 µL) were mixed. Subsequently, 0.53 mM p-NPG (380 µL) was added and incubated at 37 °C for 40 min. The reaction was stopped by adding 500 μL of 0.1 M Na2CO3 solution, and the absorbance was detected at 405 nm.
α-glucosidase inhibition (%) was counted as follows (Asample and Acontrol represent the absorbance of the tested sample and control, respectively):α-glucosidase inhibition (%) = (Acontrol − Asample)/Acontrol × 100%

A short description of assay [2]: DPPH radical scavenging activity. Conditions: isolated components; 50% free radical scavenging; read-out: SC50 DPPH. The method, then:
The DPPH radical scavenging effect was measured based on the reported method. BHT was applied as a positive control. DPPH solution was prepared diluted by EtOH to reach the final concentration of 400 µM. Different concentrations (400, 200, 100, 50, and 25 µg/mL) of extracts or compounds (100 µL) were mixed with DPPH solution (100 µL) and incubated for 30 min at room temperature and in darkness, and the absorbance of the mixture was measured at 520 nm.
(Loss of DPPH colour is used to gauge radical scavenging.)

Assay [3] in a line: Ferric reducing antioxidant power (FRAP). Conditions: isolated components, mM Trolox equivalents per g. Here is the method: FRAP was measured by the method reported in the previous literature. The working solution was mixed with acetate buffer (pH 3.6), ferric chloride solution (20 mM), and TPTZ solution (10 mM TPTZ in 40 mM HCl) at a proportion of 10:1:1, respectively, and freshly prepared before being used. A total of 900 μL of the working solution was warmed to 37 °C and then mixed with 100 μL of the diluted sample, blank or standard, in a microcentrifuge tube. The tubes were vortexed in a dry bath at 37 °C for 40 min. The absorbance was measured at 593 nm. The standard curve was linear between 0 and 100 mM Trolox. Results were expressed as mM TE/g dry weight. Additional dilution was needed if the FRAP value measured was over the linear range of the standard curve.

The target of assay [4] is T1, acetylcholinesterase (AChE). Kind of assay: Bioaffinity ultrafiltration assay with acetylcholinesterase. In kind it is binding. Conditions: components of EtOAc extract; EF = (A1 − A2)/A0 × 100%. The method, then:
(§1) The bioaffinity ultrafiltration assay was conducted using a previously described procedure. […] The reaction was conducted at 37 °C for 30 min, then centrifuged using a 14,000× g ultracentrifuge filter at 30 °C for 15 min. The filtrate was removed and 200 μL of Tris-HCl buffer was added to the ultracentrifuge filter and centrifuged at 14,000× g for 15 min at 30 °C. The previous step was repeated 3 times and the filtrate was removed. Then, 200 μL of methanol was added to the ultracentrifuge filter and centrifuged at 14,000× g for 15 min at 30 °C. The previous step was repeated 3 times and the filtrate was collected. The filtrate was concentrated and then dissolved in 50 μL MeOH for HPLC analysis. In addition, the processing of iNOS-ligand complexes was conducted following previously reported methods, while inducible nitric oxide synthase bioaffinity ultrafiltration assays were performed, as detailed above.
(§2) The binding affinity of compounds and enzymes using enrichment factor (EF) was assessed, and was counted as follows: A1, A2, and A0 represent the peak areas of picked compounds acquired from the extracts incubated with activated, inactivated, and no acetylcholinesterase, respectively. EF (%) = (A1 − A2)/A0 × 100%

In assay [5] the test system is LPS-induced iNOS expression in RAW 264.7 murine macrophages. Kind of assay: Western blotting of LPS-induced iNOS expression. In kind it is cell-based. Conditions: 50 μM; LPS-induced RAW 264.7; Western blot. The method, then:
Western blotting was conducted with the previous procedure. Cells were treated with different concentrations of compounds and 100 ng/mL of LPS for a day. After rinsing cells with cold PBS, proteins were harvested with radioimmunoprecipitation assay buffer (RIPA buffer) and stored at −20 °C for succeeding procedure. Proteins were separated on a 12.5% SDS-polyacrylamide gel and then electrophoretically transferred to a PVDF membrane. The membrane was soaked in 2% bovine serum albumin (BSA) blocking buffer for 2 h, then washed 2–3 times with TBST. Proteins were treated by particular primary antibodies and immersed overnight. The following day, PVDF membranes were washed with TBST to remove residual primary antibodies, and then immersed with secondary antibodies for 2 h. Then, enhanced chemiluminescence solution was coated on the membrane and visualized using an ImageQuant LAS 4000 Mini Biomolecular Imager (GE Healthcare, Marlborough, MA, USA). Finally, we quantified band density by ImageJ software 1.53a (BioTechniques, New York, NY, USA).

A short description of assay [6]: Superoxide radical scavenging activity. Conditions: isolated components; 50% free radical scavenging; read-out: SC50 Superoxide. Here is the method: A superoxide radical scavenging assay was performed based on previously reported methods. The superoxide radical was generated in 16 mM Tris-HCl buffer (pH 8.0) containing 50 μL of NBT (300 μM), 50 μL of PMS (120 μM), and 50 μL of different concentrations of the test sample. The reaction was initiated by adding 50 μL of NADH (468 μM) solution to the mixture. After incubating at room temperature for 5 min, the activity of samples was determined by the decrease in absorbance measured at 560 nm against the sample concentration.

The target in assay [7] is T2, inducible nitric oxide synthase (iNOS) (Mus musculus, UniProt P29477).
T2 construct: purchased Sigma-Aldrich (St. Louis, MO, USA)
Kind of assay: Bioaffinity ultrafiltration assay with inducible nitric oxide synthase. In kind it is binding. The following applies: components of EtOAc extract; EF = (A1 − A2)/A0 × 100%. Here is the method: as §1, §2

Assay [8] deals with NO production in RAW 264.7 cells. In words: Nitric oxide (NO) inhibition assay. It is filed as cell-based, murine. The following applies: Mus musculus. The method, then:
In this experiment, the RAW 264.7 macrophage cell line was used. The cells were stored at −196 °C in liquid nitrogen. After thawing, the cells were cultured in DMEM at 37 °C and 5% CO2 supplemented with 10% FBS, […] L-glutamine, 1 mM sodium pyruvate, 100 μg/mL streptomycin, and 100 U/mL penicillin.
NO inhibition assay was slightly modified from the reported method. The day before the experiment, RAW 264.7 cells were seeded into 96-well plates with 2 × 10^4 cells per well. The cells were pretreated with the sample solution, and then incubated at 37 °C for 1 h. After incubation, the cells were treated with 100 ng/mL of LPS to induce an inflammatory response. After incubation at 37 °C for 20 h, 50 μL of the supernatant was transferred from each well to another 96-well plate and mixed with an equal volume of Griess reagent. Finally, the absorbance was acquired at 550 nm after 20 min of incubation.

Assay [9] in a line: ABTS cation radical scavenging activity. The following applies: isolated components; 50% free radical scavenging; read-out: SC50 ABTS. The method, then:
The ABTS cation radical scavenging effect was measured, as previously described by. […] The working solution was diluted by EtOH to reach the absorbance of 0.70 ± 0.02 at 740 nm for further experiments. Different concentrations (400, 200, 100, 50, and 25 µg/mL) of extracts or compounds (10 µL) were mixed with the working solution (190 μL). The mixture was incubated at room temperature for 6 min, and the antioxidant activity of the mixture was determined by the decrease in absorbance measured at 740 nm.

As a reminder, the IC50 is the midpoint of a concentration-inhibition curve.

T1 sequence (O42275 24-633): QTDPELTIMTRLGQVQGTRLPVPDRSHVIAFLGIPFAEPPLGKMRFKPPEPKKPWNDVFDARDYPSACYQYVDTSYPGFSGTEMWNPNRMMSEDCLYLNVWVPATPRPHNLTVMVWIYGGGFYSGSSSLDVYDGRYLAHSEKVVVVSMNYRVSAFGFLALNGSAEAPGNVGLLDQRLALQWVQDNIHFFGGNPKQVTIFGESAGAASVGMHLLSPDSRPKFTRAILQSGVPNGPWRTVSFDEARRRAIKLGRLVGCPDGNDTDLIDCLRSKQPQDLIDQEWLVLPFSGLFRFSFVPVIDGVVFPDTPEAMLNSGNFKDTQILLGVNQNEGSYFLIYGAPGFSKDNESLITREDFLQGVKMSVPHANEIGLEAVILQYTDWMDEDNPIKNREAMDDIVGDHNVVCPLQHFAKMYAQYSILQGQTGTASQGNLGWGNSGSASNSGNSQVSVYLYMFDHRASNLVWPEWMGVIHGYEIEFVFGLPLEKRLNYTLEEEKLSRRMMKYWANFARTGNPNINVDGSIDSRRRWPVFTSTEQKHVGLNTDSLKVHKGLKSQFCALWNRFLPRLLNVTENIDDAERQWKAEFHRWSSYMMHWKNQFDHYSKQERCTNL

`COc1cc(CCc2cc(OC)c(O)c(OC)c2)ccc1O` [Dendrophenol (4), dendrophenol]: the IC50 in [1] (isolated compounds, read-out: IC50 AChE (converted)) is 165 ± 13.2 µM; against α-glucosidase it was 608 ± 48.2 µM; in assay [8] (RAW264.7, isolated components, LPS-treated RAW 264.7 cells, read-out: NO Inhibition IC50), 14.3 ± 3.17 µM. The EC50 was 11.6 ± 0.77 µM in assay [2], > 400 µM in assay [6] and 7.64 ± 0.63 µM in [9]. The entries for the “TE FRAP” value in [3] and in assay [3] (listed as dendrophenol) were 1686.53 ± 16.61 ^c mM/g and 1686.53 ± 16.61 mM/g, respectively. Moreover, the “AChE EF (enrichment factor)” value in [4] was 59.48%. The “inhibition of iNOS expression” value in [5] turned out to be 89.82%. Moreover, the “iNOS EF (enrichment factor)” value in [7] is 65.11%.
For `COc1cc(O)cc2ccc3cccc(O)c3c12` [Moscatin (2), moscatin], the half-maximal inhibitory concentration (IC50) was 162 ± 16.5 µM in [1]; 478 ± 33.4 µM against α-glucosidase; 23.5 ± 3.16 µM in assay [8] (RAW264.7, read-out: NO Inhibition IC50). Moreover, the EC50 in assay [2] was 26.7 ± 1.63 µM; in assay [6] it was > 400 µM; in assay [9], 10.3 ± 1.92 µM. Also, the “TE FRAP” value is recorded as 1396.40 ± 57.03 ^c mM/g in assay [3] and 1396.40 ± 57.03 mM/g in [3] (listed as moscatin). Also, in [4], the “AChE EF (enrichment factor)” value is on record as 66.31%. The “inhibition of iNOS expression” value in [5] came to 69.76%. Also, in assay [7], the “iNOS EF (enrichment factor)” value worked out at 88.99%.
